The values below come from patent US20250120942A1, “BRAIN FUNCTION IMPROVING AGENT” (OSAKA UNIVERSITY, priority 2021, published 2025).

In the assay the test system is model mouse with the inflammation in brain induced by administering LPS. The assay can be described thus: Forced swimming test in mouse with inflammation in brain induced by LPS (Test Example 5). The class given is in vivo, C57/BL6J mice. As to conditions: test 24 hours after LPS, FIG. 5. From the text: In regard to the depressive symptoms induced by taking LPS (Lipopolysaccharide), the effect of inhibiting the symptom by oral administration of the compound A was examined. The inflammation in the brain is thought to be one of the main onset factors of depression. It is known that LPS causes the inflammation in the brain by inducing the decrease in brain-derived neurotrophic factor and the variation of the density of dendrite of neuron, activating microglia and the like and induce depressive symptoms. […]
In 24 hours after the intraperitoneal administration of LPS, forced swimming test was conducted. The depressive symptoms were evaluated by measurement of the immobility time.
Water (25±1° C.) was put into the acryl resin cylinder (diameter 19 cm, height 25 cm) up to a height of 13 cm. The subject mouse was forced to swim for 6 minutes one by one and the state was video-recorded. […] “The state that the mouse floated on the water surface without moving its limbs and the like” was regarded as immobility and the Immobility Time (sec.) was measured during the test of 6 minutes.
From the results obtained, the mean (Mean) and the standard error (SEM) were calculated. The significant difference was assessed between the control group and Vehicle group and between the compound A administration group and the […] by using Turkey-Kramer's test. […]

As to `O=C1CC[C@H](Cc2cc(O)cc(O)c2)O1` [compound A, (R)-5-(3,5-dihydroxyphenyl)-γ-valerolactone], for the setting “oral 10 mg/kg and 30 mg/kg groups, LPS 0.5 mg/kg i.p. 30 minutes later”, the “increase of the immobility time in forced swimming test” value was “reduced”. The “immobility time in forced swimming test” value (oral 30 mg/kg, LPS 0.5 mg/kg i.p.) was “on the same level as that in the control group”.
